Assay results as given in US20190298722A1, “USE OF AN INHIBITOR OF THE DE NOVO SYNTHESIS OF PURINES, IN THE TREATMENT OF ADENYLOSUCCINATE LYASE DEFICIENCY” (ASSISTANCE PUBLIQUE-HOPITAUX DE PARIS, priority 2016, published 2019).

Experiments:
Assay type in all cases: in vivo, human
[1] = system: patients with ADSL deficiency; assay: Urinary assay of SAICAr and S-Ado by HPLC with UV detection (HPLC-DAD); details: 3 patients, after 6 and 12 months of treatment with allopurinol
Description: SAICAr and S-Ado metabolites in urine were assayed using HPLC-DAD and HPLC coupled with tandem mass spectrometry (HPLC-MS/MS) according to the techniques recently described (Ceballos-Picot et al. 2015; Zikanova et al. 2014).

[2] = system: patients with ADSL deficiency; assay: Psychoeducational Profile (PEP3) developmental assessment during allopurinol treatment
Description: (§1) Clinical characterization of the patients was carried out before starting treatment (T1) in accordance with the ICD 10 classification, using standardized tools: • A semi-structured interview by means of the Autism Diagnostic Interview (ADI-R): this is a semi-structured interview intended to classify symptoms reported by parents in the domain of communication, social interaction, restricted and stereotyped behaviours or sensory issues. Scores are established for the current period and, if necessary, for the period when the difficulties were most serious, between the ages of 4 and 5 years. A score is established for each of the three domains based on responses provided by the parents and the judgement of the interviewer. Scores above the thresholds in the 3 domains support a diagnosis of autism, and in one or two domains support a diagnosis of a pervasive developmental disorder. Scores below the thresholds in the 3 domains make it possible to rule out diagnosis of an autism spectrum disorder if the ADI-R results converge with the clinical assessment of the child. • A semi-structured interview using the Vineland 2 scale: this is a semi-structured interview which makes it possible to assess the adaptive skills of the child in the domains of communication, daily life, social skills and motor skills. From the description of their child's daily living skills, equivalent developmental ages and standardized scores are calculated, making it possible to describe the developmental and adaptive profile of the child. • A developmental assessment using the Psychoeducational Profile (PEP 3): this is a direct assessment of the skills of the child in several domains of their development, particularly suited to children who display a developmental disability. Six domains of development are assessed: verbal and preverbal cognition (VPC), expressive language (EL), receptive language (RL), gross motor skills (GM), fine motor skills (FM) and visual-motor imitation (VMI). The results are expressed in terms of equivalent developmental age and emerging score, when the exercises are partially completed. The number of emerging skills, or the difference between the actual ages and the emerging scores, are evidence of the development potential of the children. • The Conners scale: this is an assessment scale intended to quantify the symptoms of inattentiveness, agitation, impulsiveness, anxiety, somatization, behavioural difficulties and learning difficulties. There are several versions of the questionnaire, one for parents, the other for teachers or professionals. The scoring makes it possible to obtain an overall standardized score, considered to be significant when it is greater than 1.5.
(§2) Clinical re-assessments were carried out 6 months and one year after treatment with allopurinol and compared to the first assessment in the absence of treatment with allopurinol. They comprised: • At 6 months: scoring of the Vineland and Conners scales • At 12 months: scoring of the Vineland and Conners scales and completion of PEP-3.
Developmental progress was measured by means of developmental ages on the PEP3 scale before treatment (T1) and after a year of treatment (T3).

[3] = system: patients with ADSL deficiency; assay: Vineland scale (adaptive skills) during allopurinol treatment; design: Vineland standardized score, Communication / Vineland standardized score, Daily life / Vineland standardized score, Social skills / Vineland standardized score, Motor skills / Vineland standardized score, TOTAL: scale not given here
Description: as §1, §2
(§3) Clinical progress at 200 mg of allopurinol was measured for each child based on the Conner and Vineland scale scores before treatment (T1), at 6 months (T2) and at 12 months of treatment (T3) with regard to behaviour and function.

[4] = system: patients with ADSL deficiency; assay: Conners scale (parents and teachers) during allopurinol treatment
Description: as §1, §2, §3

[5] = Patient 1, T3 (12 months), T1 1.7
[6] = Patient 1, T3 (12 months), T1 2.2
[7] = Patient 2, T3 (12 months), T1 2.3
[8] = Patient 3, T3 (12 months), T1 1.4
[9] = Patient 1, T2 (6 months), T1 69
[10] = Patient 1, T3 (12 months), T1 69

O=c1ncnc2[nH][nH]cc1-2 [allopurinol, 1,2-dihydro-4H-pyrazolo[3,4-d]pyrimidin-4-one]
SAICAr and S-Ado in urine (HPLC-DAD) [1]: significant reduction
equivalent developmental ages ([2]; 3 patients, during treatment, rate remains slow with respect to chronological age): progression
PEP3 developmental age, EL (expressive language) [2, 5]: 1.8
PEP3 developmental age, RL (receptive language) [2, 5]: 2.3
PEP3 developmental age, GM [2, 6]: 2.8
PEP3 developmental age, FM ([2]; Patient 1, T3 (12 months), T1 2.5): 2.8
PEP3 developmental age, VPC (verbal and preverbal cognition) ([2]; Patient 1, T3 (12 months), T1 2.6, figures read as years.months per Table 2): 3
PEP3 developmental age, VMI (visual-motor imitation) ([2]; Patient 1, T3 (12 months), T1 2.8): 3.3
PEP3 developmental age, EL (expressive language) ([2]; Patient 2, T3 (12 months), T1 1.3): 1.7
PEP3 developmental age, RL (receptive language) ([2]; Patient 2, T3 (12 months), T1 1.8): 2.7
PEP3 developmental age, GM ([2]; Patient 2, T3 (12 months), T1 1.9): 3.3
PEP3 developmental age, FM [2, 7]: 4.0
PEP3 developmental age, VPC (verbal and preverbal cognition) [2, 7]: 2.3
PEP3 developmental age, VMI (visual-motor imitation) ([2]; Patient 2, T3 (12 months), T1 6): 6.0
PEP3 developmental age, EL (expressive language) [2, 8]: 2.3
PEP3 developmental age, GM [2, 8]: 3.4
PEP3 developmental age, RL (receptive language) ([2]; Patient 3, T3 (12 months), T1 1.5): 2
PEP3 developmental age, VPC (verbal and preverbal cognition) ([2]; Patient 3, T3 (12 months), T1 1.6): 2.4
PEP3 developmental age, FM ([2]; Patient 3, T3 (12 months), T1 2): 3.6
PEP3 developmental age, VMI (visual-motor imitation) ([2]; Patient 3, T3 (12 months), T1 2.1): 3.3
PEP3 developmental age, fine motor skills and receptive language ([2]; patient P2, T1 to T3): approximately a year
PEP3 developmental age, gross motor skills ([2]; patient P2, T1 to T3): improvement of more than a year
PEP3 developmental level, expressive language and preverbal and verbal cognition ([2]; patient P3, T1 to T3): gain of more than a year
standardized scores on the Vineland scale in all domains ([3]; 3 patients, during treatment, more pronounced for communication): improvement
Vineland standardized score, Communication ([3]; Patient 1, T2 (6 months), T1 67): 65
Vineland standardized score, Daily life [3, 9]: 71
Vineland standardized score, TOTAL [3, 9]: 76
Vineland standardized score, Social skills ([3]; Patient 1, T2 (6 months), T1 73): 66
Vineland standardized score, Communication ([3]; Patient 1, T3 (12 months), T1 67): 75
Vineland standardized score, Daily life [3, 10]: 74
Vineland standardized score, TOTAL [3, 10]: 74
Vineland standardized score, Social skills ([3]; Patient 1, T3 (12 months), T1 73): 75
Vineland standardized score, Communication ([3]; Patient 2, T2 (6 months), T1 57): 72
Vineland standardized score, Motor skills ([3]; Patient 2, T2 (6 months), T1 61): 67
Vineland standardized score, TOTAL ([3]; Patient 2, T2 (6 months), T1 69): 79
Vineland standardized score, Social skills ([3]; Patient 2, T2 (6 months), T1 79): 83
Vineland standardized score, Daily life ([3]; Patient 2, T2 (6 months), T1 81): 87
Vineland standardized score, Communication ([3]; Patient 2, T3 (12 months), T1 57): 75
Vineland standardized score, Motor skills ([3]; Patient 2, T3 (12 months), T1 61): 85
Vineland standardized score, TOTAL ([3]; Patient 2, T3 (12 months), T1 69): 82
Vineland standardized score, Social skills ([3]; Patient 2, T3 (12 months), T1 79): 83
Vineland standardized score, Daily life ([3]; Patient 2, T3 (12 months), T1 81): 87
Vineland standardized score, Communication ([3]; Patient 3, T2 (6 months), T1 65): 69
Vineland standardized score, Motor skills ([3]; Patient 3, T2 (6 months), T1 67): 70
Vineland standardized score, TOTAL ([3]; Patient 3, T2 (6 months), T1 71): 77
Vineland standardized score, Daily life ([3]; Patient 3, T2 (6 months), T1 75): 87
Vineland standardized score, Social skills ([3]; Patient 3, T2 (6 months), T1 76): 83
Vineland standardized score, Communication ([3]; Patient 3, T3 (12 months), T1 65): 74
Vineland standardized score, Motor skills ([3]; Patient 3, T3 (12 months), T1 67): 72
Vineland standardized score, TOTAL ([3]; Patient 3, T3 (12 months), T1 71): 80
Vineland standardized score, Daily life ([3]; Patient 3, T3 (12 months), T1 75): 87
Vineland standardized score, Social skills ([3]; Patient 3, T3 (12 months), T1 76): 88
overall clinical outcome ([4]; 3 patients during treatment with allopurinol, more significant in the youngest patient (P3)): clinical improvement
Conners v-score, scale completed by the parents ([4]; 3 patients, T1, T2, T3): reduction in the v-score
scores on the Conners scale (parents and teachers) ([4]; 3 patients, during treatment): reduction
Conners score, Teachers ([4]; Patient 1, T2 (6 months), T1 2.2, significant when >1.5): 1.5
Conners score, Parents ([4]; Patient 1, T2 (6 months), T1 2.3): 1.6
Conners score, Teachers [4, 6]: 1
Conners score, Parents ([4]; Patient 1, T3 (12 months), T1 2.3): 1.8
Conners score, Parents ([4]; Patient 2, T2 (6 months), T1 1): 0.8
Conners score, Teachers ([4]; Patient 2, T2 (6 months), T1 2): 1.5
Conners score, Parents ([4]; Patient 2, T3 (12 months), T1 1): 0.5
Conners score, Teachers ([4]; Patient 2, T3 (12 months), T1 2): 1.4
Conners score, Parents ([4]; Patient 3, T2 (6 months), T1 1.7): 1.2
Conners score, Teachers ([4]; Patient 3, T2 (6 months), T1 1.9): 1.8
Conners score, Parents ([4]; Patient 3, T3 (12 months), T1 1.7): 1
Conners score, Teachers ([4]; Patient 3, T3 (12 months), T1 1.9): 1
hyperactivity reported by the parents and teachers ([4]; three children, allopurinol 200 mg/d): reduction in hyperactivity
behavioural disorders ([4]; three children, allopurinol 200 mg/d, after 6 and 12 months): substantial improvement
behavioural disorders assessed using the Conners and Vineland scales ([4]; three children, allopurinol 200 mg/d, after 6 months): substantial improvement
